In assay [1] the test system is C57B6J mice. As to the kind of experiment: Sucrose preference test after chronic mild unpredictable stress. Particulars: relative to stress vehicle; for sucrose preference: all time points tested. The format is in vivo. As to the method: FIG. 4. Effect of mesembrenol (0.3, 1 and 3 mg/kg, i.p.) administered 30 minutes pre-test on sucrose preference following chronic mild unpredictable stress. Data represents cumulative % preference for sucrose solution over water at the 4, 8, 12 and 24 hour timepoints of the test period. Analysis by repeat measures two-way ANOVA followed by multiple comparisons with Dunnet's correction; *-****P<0.05-0.0001 vs stress vehicle (n=8).
FIG. 5. Effect of mesembranol (0.3, 1 and 3 mg/kg, i.p.) administered 30 minutes pre-test on sucrose preference following chronic mild unpredictable stress. Data represents cumulative % preference for sucrose solution over water at the 4, 8, 12 and 24 hour timepoints of the test period. Analysis by two-way ANOVA followed by multiple comparisons with Sidak's correction; *-*P<0.001-0.0001 vs stress vehicle (n=8).
(§1) C57BI6J mice, will be housed in groups of 4, will be exposed to a variety of mild stressors for a period of four weeks.
(§2) The stressors will include wet bedding, 40° cage tilt, introduction of intruder mouse from different experimental cohort, food deprivation, water deprivation, overnight illumination, and presence of soiled rat bedding as an aversive odour. These stressors are randomly scheduled over each weekly period and repeated for the duration of the experiment. Each stressor is applied for a period of 8-16 hours.
(§3) A cohort of depression-like phenotype in adult male C57B6J mice is produced by employing a four-week mild unpredictable stress protocol.
An additional readout was used to assess antidepressant-like activity of the test compounds using a further measure of anhedonia, the sucrose preference test.
During this test, mice are housed individually and provided, for 24 hours, a free choice between two bottles, one with 1% sucrose solution and another with filtered tap water.
To prevent possible effects of side preference in drinking behaviour, the position of the bottles is swapped after 12 hours. The consumption of water and sucrose solution is estimated simultaneously in control and experimental groups by weighing the bottles. The sucrose intake is calculated as an amount of consumed sucrose in mg per gram body weight. The preference for sucrose is calculated as a percentage of consumed sucrose solution of the total amount of liquid drunk.
A decrease of sucrose preference below 65%, is taken as the criterion for anhedonia. […] In addition, mice with a lower than 65% sucrose preference in other models display features of anhedonia and depression, such as an increased threshold of intracranial self-stimulation and sleep disturbances.
The effect of 2 weeks treatment with imipramine or the acute effect of the test compound or vehicle is determined over this 24 hour period.

The subject of assay [2] is C57B6J mice. As to the kind of experiment: Forced swim test after chronic mild unpredictable stress. Particulars: 3 mg/kg i.p., 30 minutes pre-test, relative to vehicle. The format is in vivo. The method, then: FIG. 6. Effect of mesembrenol (0.3, 1 and 3 mg/kg, i.p.) administered 30 minutes pre-test on chronic mild unpredictable stress induced depression phenotype in the forced swim test. Data represents (A) latency to immobility (sec) and (B) total time immobile in the four minute evaluation phase of the procedure. Analysis by one-way ANOVA followed by multiple comparisons with Sidak's and Dunn's correction; **-****P<0.01-0.0001 vs stress vehicle (n=8).
FIG. 7. Effect of mesembranol (0.3, 1 and 3 mg/kg, i.p.) administered 30 minutes pre-test on chronic mild unpredictable stress induced depression phenotype in the forced swim test. Data represents (A) latency to immobility (sec) and (B) total time immobile in the four minute evaluation phase of the procedure. Analysis by one-way ANOVA followed by multiple comparisons with Sidak's correction; ***-****P<0.001-0.0001 vs stress vehicle (n=8).
as §1, §2, §3
The effect of treatment with the test compounds on chronic mild stress induced immobility in the forced swim test was tested to establish antidepressant-like activity.
Following the 24 hour sucrose preference test, animals are treated again with the test compound, imipramine or vehicle. Animals are individually placed in clear Plexiglas cylinders (25 cm high; 10 cm in diameter) which are filled to a depth of 15 cm with water at 22-25° C.
Testing is conducted under low level red light and behaviour recorded over a 6 minute period using a video camera placed above the cylinder. During the test the animals are placed in the cylinder and allowed to habituate for two minutes before the cumulative duration of time spent immobile is determined over the following 4 minutes. Latency to immobility is recorded.
Movements necessary for the animal to maintain its head above water will not be scored as activity.

Assay [3] concerns the target human recombinant PDE-4B1 (Homo sapiens, UniProt Q07343). As to the kind of experiment: PDE4-B1 assay (SPA). The format is biochemical. Particulars: human recombinant enzyme, 450 nM cAMP. As to the method:
Test compounds (conc range), reference compound or vehicle control were added to assay buffer containing (in mM); Tris/HCl, pH 7.4 (40), MgCl2 (8) and EGTA/NaOH (1.7), containing 450 nM cAMP (450 nM) and 0.25 μCi (PDE-4B1) or 0.0125 μCi (PDE-4D2) [^3H] CAMP. 20 mins after addition of human recombinant PDE-4B1 (1.2 IEU) or PDE-4D2 (1.5 IEU), SPA beads were added and incubated at 22° C. for a further 30 mins. [^3H]5′AMP was quantified by a standard scintillation counting method.
Data were expressed as the mean of two technical replicates for each data point, and percent inhibition calculated relative to maximum inhibition observed in the presence of the reference comparator rolipram for PDE-4 assays, and imipramine for serotonin assays.

The subject of a further assay is zebrafish. The following applies: isolated alkaloids, Maphanga et al., 2022; cited from earlier work.

human recombinant PDE-4B1, sequence (Q07343 whole entry): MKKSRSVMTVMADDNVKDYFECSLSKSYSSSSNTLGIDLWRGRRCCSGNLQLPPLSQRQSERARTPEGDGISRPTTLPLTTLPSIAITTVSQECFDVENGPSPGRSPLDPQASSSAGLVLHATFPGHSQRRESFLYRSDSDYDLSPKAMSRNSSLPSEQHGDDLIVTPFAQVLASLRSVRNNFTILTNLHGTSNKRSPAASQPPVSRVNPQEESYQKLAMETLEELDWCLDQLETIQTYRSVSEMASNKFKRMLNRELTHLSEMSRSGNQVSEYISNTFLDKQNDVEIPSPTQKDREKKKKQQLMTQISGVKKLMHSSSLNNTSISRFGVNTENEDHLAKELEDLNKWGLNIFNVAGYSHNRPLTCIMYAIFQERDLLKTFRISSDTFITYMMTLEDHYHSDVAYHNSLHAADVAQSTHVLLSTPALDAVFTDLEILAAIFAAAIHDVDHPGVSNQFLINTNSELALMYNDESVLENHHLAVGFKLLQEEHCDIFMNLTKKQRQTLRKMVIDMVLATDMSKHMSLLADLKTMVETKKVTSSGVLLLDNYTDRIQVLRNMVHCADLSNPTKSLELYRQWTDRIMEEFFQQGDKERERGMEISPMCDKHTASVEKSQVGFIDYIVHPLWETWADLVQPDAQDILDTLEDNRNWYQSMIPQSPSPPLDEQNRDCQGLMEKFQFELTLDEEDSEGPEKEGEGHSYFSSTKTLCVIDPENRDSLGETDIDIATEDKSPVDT

Usually IC50 stands for the concentration that inhibits the measured activity by half. Turning to `COc1ccc(C23CCC(O)CC2N(C)CC3)cc1OC` (stereo not drawn) [Mesembranol, 3a-(3,4-dimethoxyphenyl)-1-methyl-3,4,5,6,7,7a-hexahydro-2H-indol-6-ol], in the assay on C57B6J mice [1] (3 mg/kg i.p.), the sucrose preference entry is on record as “statistically significant increase”. For the same molecule, in the assay with C57B6J mice [2], the immobility time result is on record as “significant reduction” and the latency to immobility result is recorded as “no changes”. Further, the IC50 in assay [3] came out at 8.41 µM. Besides, the “effect in zebrafish model of anxiety” value in the assay with zebrafish is “anxiolytic-like effect”.
In the case of `COc1ccc(C23C=CC(O)CC2N(C)CC3)cc1OC` (stereo not drawn) [Mesembrenol], the sucrose preference entry in the assay on C57B6J mice [1] (1 mg/kg i.p.) and with C57B6J mice [1] (3 mg/kg i.p.) was “significant increase” in each case. Besides, in the assay on C57B6J mice [1] (0.3, 1 and 3 mg/kg i.p., 30 minutes pre-test, all time points (4, 8, 12, 24 hour)), the “sucrose preference, dose response” value is reported as “dose dependent increase”. Besides, the immobility time result in the assay with C57B6J mice [2] was “significant reduction”. Also, the latency to immobility result in the assay with C57B6J mice [2] is “significant increase”. Besides, in assay [3], the IC50 came out at 27.6 µM. The “effect in zebrafish model of anxiety” value with zebrafish is “anxiolytic-like effect”.
